This is an account of results in paper PMC11571215, “Optimization of Antiproliferative Properties of Triimine Copper(II) Complexes” (Journal of Medicinal Chemistry, 2024).

Structures are written as SMILES.

Usually IC50 stands for the point on the concentration scale where inhibition reaches its midpoint.

Data set [1] relates to HCT116-DoxR cells. As to the kind of experiment: Apoptosis by Annexin V-FITC/PI flow cytometry. The following applies: 48 h, complexes at IC50, Dox 6 μM, Cis 5 μM. It is filed as cell-based, human. The protocol:
Initially, a quantitative assay with double staining using annexin V-FITC (FITC, fluorescein isothiocyanate) and propidium iodide (PI) through flow cytometry was performed.[24] Annexin V-FITC, a probe with an affinity for the ionic phospholipid phosphatidylserine (PS), predominantly located on the inner side of the plasma membrane in healthy cells, undergoes translocation to the outer plasma membrane during the early stages of apoptosis.[61],[67] In contrast, PI is a DNA intercalating agent that marks cells with compromised plasma membrane (usually in the late stages of apoptosis or in necrosis), emitting red fluorescence upon interaction with nucleic acids.[54],[68] This assay allows for distinguishing cells in four different conditions: viable cells (FITC–, PI−), early apoptosis (FITC+, PI−), late apoptosis (FITC+, PI+), and necrosis (FITC–, PI+).
The Annexin V-FITC Apoptosis Detection Kit (catalog no. V13245, Invitrogen, USA) was used in this study for the induction of apoptosis analysis. HCT116-DoxR cells were seeded in 6-well plates at a cell density of 1 × 10^5 cells/mL and incubated for 24 h, under the same conditions mentioned before. […] After this incubation period, the cells were washed with PBS 1× and trypsinized with TrypLE Express (Invitrogen). The supernatant was discarded, and the pellet was washed with PBS 1×. The cells were resuspended in 1× Annexin V-FITC binding buffer. Subsequently, the samples were incubated at room temperature (RT) with Alexa Fluor 488 annexin V and 100 μg/mL of propidium iodide (PI) in the dark for 15 min. After incubation, 1× Annexin V-FITC binding buffer was added and the samples were analyzed using an Attune Acoustic Focusing Flow Cytometer (Life Technologies, Carlsbad, USA). Results were processed with Attune Cytometric software.
A general note: A flow cytometer gives signals particle by particle.

The subject of data set [2] is calf-thymus DNA (ctDNA). As to the kind of experiment: Ethidium bromide displacement assay. In kind it is binding. The following applies: for Ksv (Stern-Volmer constant): ctDNA-EB adduct in PBS buffer, EB 50 μM. An excerpt:
Compounds that intercalate between DNA base pairs equally or more strongly than EB replace it from the adduct ctDNA-EB, which results in a noticeable decrease or quenching of the fluorescence emission. […] For both Cu1a and Cu1b, the decrease in the fluorescence intensity of ctDNA-EB with increasing complex concentrations fulfills the linear Stern–Volmer equation (eq 3)[90]: [drawing 6] 3
The apparent binding constants (Kapp) are estimated using eq 4: [drawing 7] 4 (where KEB = 1.0 × 10^7 M^–1, [EB] is the EB concentration (50 μM), [Q50] is the complex concentration at 50% reduction of EB fluorescence intensity, estimated based on the linear Stern–Volmer plot for I^0/I = 2). Kapp is equal to 1.75 × 10^5 M^–1 for Cu1a and 2.35 × 10^6 M^–1 for Cu1b. […] Nevertheless, both Cu(II) complexes show rather moderate ability to replace EB from the adduct with ctDNA.[21]
Ethidium bromide (EB) and calf-thymus DNA (ctDNA) were purchased from Sigma-Aldrich and Thermo Fisher Scientific, respectively. Prior to experiments, a solution containing 10 mg/mL of ctDNA in DNase-free and RNase-free distilled, deionized water was spectroscopically monitored at 260 nm and at 280 nm to determine the concentration and check the purity.
The ethidium bromide (EB) fluorescence displacement assay was carried out using a Hitachi F-7000 spectrofluorometer. An equimolar amount (50 μM) of EB solution was added to ctDNA solution at room temperature, followed by 2 h incubation in the dark. The compound was then titrated into the EB–ctDNA mixture, well mixed, and allowed to stand for 30 min. The concentrations of the complexes varied from 0 to 40 μM.

The test system of data set [3] is HCT116-DoxR 3D spheroids. As to the kind of experiment: MTS cell viability assay in 3D tumor spheroids. In kind it is cell-based, human. The following applies: spheroids with 6 days of growth, 48 h of exposure. The method, then: The research on tumor microenvironment (TME) has recently been gaining attention due to its important role in tumor growth, progression, and response to therapy.[57]−[60] Because of this, the development of 3D cancer models that mimic the interactions in the TME and the tumor structure and complexity is of great relevance to cancer research and drug development. […] The MTS assay was performed inHCT116-DoxR 3D spheroids with 6 days of growth (Figure S15 in ESI), followed by exposure to the complexes for 48 h. The results of cell viabilities and respective relative IC50 values calculated are provided in Figure 4 and Table 5, respectively.
HCT116-DoxR cells were seeded at 5 × 10^4 cells/mL in super low Attachment 96-well plates (NunclonSphera U-Shaped-Bottom Microplate, Thermo Fisher Scientific, Waltham, MA, USA) and incubated at 37 °C in a humidified atmosphere with 5% (v/v) CO2, to allow spheroids formation and growth.[60],[105] To perform the cell viability study, two methods were used: the MTS assay and the CellTox assay.
For MTS assay, HCT116DoxR spheroids grown for 6 to 8 days were used. […] The spheroids were further incubated for 4 h and subsequently transferred the medium to a 96-well flat-bottom plate for analysis using the Tecan Infinite M200 microplate reader (Tecan, Männedorf, Switzerland).

`N.N.[Cl][Pt][Cl]` [Cisplatin]: in data set [1], the early apoptosis is recorded as 40.1%, the late apoptosis turned out to be 25.8% and the necrosis was 0.9% ± 1.1. For the same compound, in data set [1] (listed as cisplatin), the early apoptosis is on record as 40.1% ± 11.8 and the late apoptosis was 25.8% ± 7.7.

Turning to `[Cl][Cu-3]12([Cl])[n+]3ccccc3-c3cc(-c4cccc5ccccc45)cc([n+]31)-c1cccc[n+]12` [Cu1a], in data set [1], the viable cells was 23.1% ± 4.5. The “Ksv (Stern-Volmer constant)” value in data set [2] is given as 3.8 × 10^3 M^–1. Moreover, in data set [3], inhibition was half-maximal at 10.1 ± 0.22 µM (IC50).

Consider `[Cl][Cu-3]12([Cl])[n+]3ccccc3-c3cc(-c4ccc5ccccc5c4)cc([n+]31)-c1cccc[n+]12` [Cu1b], for which, in data set [1], the necrosis is 0.7% ± 0.6 and the viable cells is on record as 59.3% ± 7.8. Besides, the “Ksv (Stern-Volmer constant)” value in data set [2] is given as 4.7 × 10^3 M^–1. The “apparent binding constant Kapp” value in data set [2] (eq 4, KEB = 1.0 × 10^7 M^–1, [EB] 50 μM) is reported as 2.35 × 10^6 M^–1. In data set [3], this compound came in with an IC50 of 33.9 ± 0.4 µM.

With `COc1cccc2c1C(=O)c1c(O)c3c(c(O)c1C2=O)C[C@@](O)(C(=O)CO)C[C@@H]3O[C@H]1C[C@H](N)[C@H](O)[C@H](C)O1` [Doxorubicin], in data set [1], the early apoptosis is reported as 16.6% ± 5.5, the late apoptosis was 13.9% ± 1.9, the necrosis was 9.8% ± 4.0 and the viable cells is on record as 59.8% ± 3.8. In data set [1] (listed as Dox), the late apoptosis was determined as 13.9%, the necrosis came to 9.8% and the viable cells result was “about 59.8%”.
